# Source: ChEMBL document CHEMBL5321231, “Synthesis, antiviral activity, and computational study of β-d-xylofuranosyl nucleoside phosphonates” (Eur J Med Chem, 2023)
# Activity calls are given as the source filed them. No cut-off for these calls is given here.
# Tested on: Respiratory syncytial virus
# Test: Antiviral activity against RSV A2 strain infected in vervet monkey MA-104 cells assessed as reduction in virus induced cytopathic effect incubated for 6 days by neutral red dye based spectrophotometric analysis
# Type: functional, organism-based
# Details: time 6.0 day
row,SMILES,Activity
1,NC(=O)c1ncn([C@@H]2O[C@H](CO)[C@@H](O)[C@H]2O)n1,inactive
2,O=c1ccn([C@@H]2O[C@H](CO)[C@H](OCP(=O)(O)O)[C@H]2O)c(=O)[nH]1,inactive

# Tested on: not listed separately
# Test: Cytotoxicity against African green monkey Vero 76 cells assessed as reduction in cell viability by neutral red dye based spectrophotometric analysis
# Type: toxicity
# Details: chlorocebus sabaeus
row,SMILES,CC50
1,Nc1ccn([C@@H]2O[C@H](CO)[C@@H](O)[C@H]2F)c(=O)n1,> 100 µM
2,O=c1ccn([C@@H]2O[C@H](CO)[C@H](OCP(=O)(O)O)[C@H]2O)c(=O)[nH]1,> 100 µM

# Tested on: not listed separately
# Test: Cytotoxicity against African green monkey Vero 76 cells assessed as reduction in cell viability by visual analysis
# Type: toxicity, cell-based
# Details: chlorocebus sabaeus
row,SMILES,CC50
1,Nc1ccn([C@@H]2O[C@H](CO)[C@@H](O)[C@H]2F)c(=O)n1,> 100 µM
2,O=c1ccn([C@@H]2O[C@H](CO)[C@H](OCP(=O)(O)O)[C@H]2O)c(=O)[nH]1,> 100 µM

# Tested on: not listed separately
# Test: Selectivity index, ratio of CC50 for cytotoxicity against African green monkey Vero 76 cells to EC50 for antiviral activity against MeV CC strain infected in African green monkey Vero 76 cells by visual analysis
# Type: toxicity, cell-based
# Details: read-out: Ratio CC50/EC50
row,SMILES,selectivity ratio
1,Nc1ccn([C@@H]2O[C@H](CO)[C@@H](O)[C@H]2F)c(=O)n1,> 140
2,O=c1ccn([C@@H]2O[C@H](CO)[C@H](OCP(=O)(O)O)[C@H]2O)c(=O)[nH]1,> 1.4

# Tested on: Influenza A virus
# Test: Antiviral activity against influenza A virus H1N1 California/07/2009 infected in dog MDCK cells assessed as reduction in virus induced cytopathic effect incubated for 6 days by neutral red dye based spectrophotometric analysis
# Type: functional, organism-based
# Details: time 6.0 day
row,SMILES,Activity
1,NC(=O)c1ncn([C@@H]2O[C@H](CO)[C@@H](O)[C@H]2O)n1,inactive
2,O=c1ccn([C@@H]2O[C@H](CO)[C@H](OCP(=O)(O)O)[C@H]2O)c(=O)[nH]1,inactive

# Tested on: not listed separately
# Test: Selectivity index, ratio of CC50 for cytotoxicity against African green monkey Vero 76 cells to EC50 for antiviral activity against MeV CC strain infected in African green monkey Vero 76 cells by neutral red dye based spectrophotometric analysis
# Type: toxicity, cell-based
# Details: read-out: Ratio CC50/EC50
row,SMILES,selectivity ratio
1,Nc1ccn([C@@H]2O[C@H](CO)[C@@H](O)[C@H]2F)c(=O)n1,> 110
2,O=c1ccn([C@@H]2O[C@H](CO)[C@H](OCP(=O)(O)O)[C@H]2O)c(=O)[nH]1,> 1.2

# Tested on: Hepatitis B virus
# Test: Antiviral activity against Hepatitis B virus
# Type: functional, organism-based
# Details: not given
row,SMILES,Activity
1,O=c1ccn([C@@H]2O[C@H](CO)[C@H](OCP(=O)(O)O)[C@H]2O)c(=O)[nH]1,inactive

# Tested on: not listed separately
# Test: Cytotoxicity against human Huh-7 cells assessed as reduction in cell viability by visual analysis
# Type: toxicity, cell-based
# Details: not given
row,SMILES,CC50
1,O=c1ccn([C@@H]2O[C@H](CO)[C@H](OCP(=O)(O)O)[C@H]2O)c(=O)[nH]1,> 100 µM

# Tested on: Herpesviridae sp.
# Test: Antiviral activity against HSV
# Type: functional, organism-based
# Details: not given
row,SMILES,Activity
1,O=c1ccn([C@@H]2O[C@H](CO)[C@H](OCP(=O)(O)O)[C@H]2O)c(=O)[nH]1,inactive

# Tested on: dengue virus type 2
# Test: Antiviral activity against DENV-2 New Guinea C infected in human Huh-7 cells assessed as reduction in virus induced cytopathic effect incubated for 6 days by neutral red dye based spectrophotometric analysis
# Type: functional, organism-based
# Details: Huh-7, 144 h
row,SMILES,EC50
1,O=c1ccn([C@@H]2O[C@H](CO)[C@H](OCP(=O)(O)O)[C@H]2O)c(=O)[nH]1,> 84 µM

# Tested on: enterovirus D68
# Test: Antiviral activity against EV-68 US/KY/14-18953 infected in human RD cells assessed as reduction in virus induced cytopathic effect incubated for 3 days by visual analysis
# Type: functional, organism-based
# Details: Enterovirus D, US/KY/14-18953, RD, 72 h
row,SMILES,EC50
1,O=c1ccn([C@@H]2O[C@H](CO)[C@H](OCP(=O)(O)O)[C@H]2O)c(=O)[nH]1,> 100 µM

# Tested on: enterovirus D68
# Test: Antiviral activity against EV-68 US/KY/14-18953 infected in human RD cells assessed as reduction in virus induced cytopathic effect incubated for 3 days by neutral red dye based spectrophotometric analysis
# Type: functional, organism-based
# Details: Enterovirus D, US/KY/14-18953, RD, 72 h
row,SMILES,EC50
1,O=c1ccn([C@@H]2O[C@H](CO)[C@H](OCP(=O)(O)O)[C@H]2O)c(=O)[nH]1,> 100 µM

# Tested on: dengue virus type 2
# Test: Antiviral activity against DENV-2 New Guinea C infected in human Huh-7 cells assessed as reduction in virus induced cytopathic effect incubated for 6 days by visual analysis
# Type: functional, organism-based
# Details: Huh-7, 144 h
row,SMILES,EC50
1,O=c1ccn([C@@H]2O[C@H](CO)[C@H](OCP(=O)(O)O)[C@H]2O)c(=O)[nH]1,> 100 µM

# Tested on: not listed separately
# Test: Cytotoxicity against human Huh-7 cells assessed as reduction in cell viability by neutral red dye based spectrophotometric analysis
# Type: toxicity
# Details: not given
row,SMILES,CC50
1,O=c1ccn([C@@H]2O[C@H](CO)[C@H](OCP(=O)(O)O)[C@H]2O)c(=O)[nH]1,> 100 µM

# Tested on: Measles morbillivirus
# Test: Antiviral activity against MeV CC strain infected in African green monkey Vero 76 cells assessed as reduction in virus induced cytopathic effect incubated for 6 days by visual analysis
# Type: functional, organism-based
# Details: Vero 76, 144 h
row,SMILES,EC50
1,Nc1ccn([C@@H]2O[C@H](CO)[C@@H](O)[C@H]2F)c(=O)n1,0.7 µM
2,O=c1ccn([C@@H]2O[C@H](CO)[C@H](OCP(=O)(O)O)[C@H]2O)c(=O)[nH]1,72 µM

# Tested on: Middle East respiratory syndrome-related coronavirus
# Test: Antiviral activity against MERS-CoV EMC strain infected in […] cells assessed as reduction in virus induced cytopathic effect incubated for 5 days by neutral red dye based spectrophotometric analysis
# Type: functional, organism-based
# Details: time 5.0 day
row,SMILES,Activity
1,O=c1ccn([C@@H]2O[C@H](CO)[C@H](OCP(=O)(O)O)[C@H]2O)c(=O)[nH]1,inactive

# Tested on: not listed separately
# Test: Cytotoxicity against human RD cells assessed as reduction in cell viability by neutral red dye based spectrophotometric analysis
# Type: toxicity
# Details: not given
row,SMILES,CC50
1,CC(C)S(=O)(=O)n1c(N)nc2ccc(/C(=N/O)c3ccccc3)cc21 [ENVIROXIME],5.5 µM
2,O=c1ccn([C@@H]2O[C@H](CO)[C@H](OCP(=O)(O)O)[C@H]2O)c(=O)[nH]1,> 100 µM

# Tested on: Measles morbillivirus
# Test: Antiviral activity against MeV CC strain infected in African green monkey Vero 76 cells assessed as reduction in virus induced cytopathic effect incubated for 6 days by neutral red dye based spectrophotometric analysis
# Type: functional, organism-based
# Details: Vero 76, 144 h
row,SMILES,EC50
1,Nc1ccn([C@@H]2O[C@H](CO)[C@@H](O)[C@H]2F)c(=O)n1,0.95 µM
2,O=c1ccn([C@@H]2O[C@H](CO)[C@H](OCP(=O)(O)O)[C@H]2O)c(=O)[nH]1,82 µM

# Tested on: Tacaribe virus
# Test: Antiviral activity against TCRV TRVL 11573 strain infected in African green monkey Vero 76 cells assessed as reduction in virus induced cytopathic effect incubated for 7 days by neutral red dye based spectrophotometric analysis
# Type: functional, organism-based
# Details: Mammarenavirus tacaribeense, time 7.0 day
row,SMILES,Activity
1,NC(=O)c1ncn([C@@H]2O[C@H](CO)[C@@H](O)[C@H]2O)n1,inactive
2,O=c1ccn([C@@H]2O[C@H](CO)[C@H](OCP(=O)(O)O)[C@H]2O)c(=O)[nH]1,inactive

# Tested on: not listed separately
# Test: Cytotoxicity against human RD cells assessed as reduction in cell viability by visual analysis
# Type: toxicity, cell-based
# Details: not given
row,SMILES,CC50
1,CC(C)S(=O)(=O)n1c(N)nc2ccc(/C(=N/O)c3ccccc3)cc21 [ENVIROXIME],10 µM
2,O=c1ccn([C@@H]2O[C@H](CO)[C@H](OCP(=O)(O)O)[C@H]2O)c(=O)[nH]1,> 100 µM
